Laboratory results from patent US12344610B2, “APOL1 inhibitors and methods of use” (Maze Therapeutics, Inc., priority 2022, dated 2025).

Biological target: T1, APOL1 G2 (Homo sapiens, UniProt O14791, DEL388-389)
T1 construct: expressed in transfected cells; host or cells: HEK293 T-REx clonal line stably expressing GCaMP6f (HEK T-REx/GCaMP6f/APOL1 G2 K6.3), doxycycline induced
T1 sequence (O14791 with tags, fused parts or gaps DEL388-389): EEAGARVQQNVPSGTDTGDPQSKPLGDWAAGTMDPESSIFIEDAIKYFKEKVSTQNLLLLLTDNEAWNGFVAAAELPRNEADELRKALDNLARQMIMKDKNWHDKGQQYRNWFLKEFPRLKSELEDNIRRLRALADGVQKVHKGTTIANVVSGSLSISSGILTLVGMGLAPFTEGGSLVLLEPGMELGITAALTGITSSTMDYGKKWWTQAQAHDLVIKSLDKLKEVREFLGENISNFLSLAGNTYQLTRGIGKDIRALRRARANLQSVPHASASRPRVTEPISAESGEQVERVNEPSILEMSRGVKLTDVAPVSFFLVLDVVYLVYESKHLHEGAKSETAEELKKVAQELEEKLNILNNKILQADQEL
Experiment: APOL1-mediated calcium transport (calcium influx) assay, HEK T-REx/GCaMP6f/APOL1 G2 K6.3 cells, FLIPR TETRA
Assay type: cell-based
Conditions: prevention of calcium influx; geometric mean of at least 2 assay runs; † = average of a technical replicate from a single assay run
Procedure, shortened: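 A HEK293 T-REx clone stably expressing GCaMP6f had APOL1 G2 induced with doxycycline (20 ng/mL solution added) for 6 h. Cells were then washed into Ca2+-free Tyrode's buffer (pH 7.4) and preincubated with compounds (duplicate 8-point) for 10 min at room temperature. Ca2+ injection to 5 mM final produced FLIPR GCaMP fluorescence, giving AC50 for influx inhibition (geometric mean, ≥2 runs).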

Row | Compound | AC50 [nM]
1 | CNC(=O)N1CCCc2cc(OCCN3CCC4(CC3)C(=O)Nc3ccc(Cl)cc34)ccc21 [Compound 60, 6-(2-{5-chloro-2-oxo-1,2-dihydrospiro[indole-3,4′-piperidin]-1′-yl}ethoxy)-N-methyl-1,2,3,4-tetrahydroquinoline-1-carboxamide] | 652
2 | O=C1Nc2ccc(Cl)cc2C12CCN(CCOc1ccc3nccnc3c1)CC2 [Compound 62, 5-chloro-1′-[2-(quinoxalin-6-yloxy)ethyl]-1,2-dihydrospiro[indole-3,4′-piperidin]-2-one] | 958
3 | CS(=O)(=O)c1ccc(OCCN2CCC3(CC2)C(=O)Nc2ccc(Cl)cc23)cc1F [Compound 63, 5-chloro-1′-[2-(3-fluoro-4-methanesulfonylphenoxy)ethyl]-1,2-dihydrospiro[indole-3,4′-piperidin]-2-one] | 461
4 | CS(=O)(=O)c1ccc(OCCN2CCC3(CC2)C(=O)Nc2ccc(Cl)cc23)cn1 [Compound 64, 5-chloro-1′-{2-[(6-methanesulfonylpyridin-3-yl)oxy]ethyl}-1,2-dihydrospiro[indole-3,4′-piperidin]-2-one] | 455
5 | CN1C(=O)Cc2cc(OCCN3CCC4(CC3)C(=O)Nc3ccc(Cl)cc34)ccc21 [Compound 65, 5-chloro-1′-{2-[(1-methyl-2-oxo-2,3-dihydro-1H-indol-5-yl)oxy]ethyl}-1,2-dihydrospiro[indole-3,4′-piperidin]-2-one] | 639
6 | Cc1ccc2c(c1)C1(CCN(CCOc3ccc(S(C)(=O)=O)cc3)CC1)C(=O)N2 [Compound 66, 1′-[2-(4-methanesulfonylphenoxy)ethyl]-5-methyl-1,2-dihydrospiro[indole-3,4′-piperidin]-2-one] | 461
7 | Cn1ncc2cc(OCCN3CCC4(CC3)C(=O)Nc3ccc(Cl)cc34)ccc21 [Compound 68, 5-chloro-1′-{2-[(1-methyl-1H-indazol-5-yl)oxy]ethyl}-1,2-dihydrospiro[indole-3,4′-piperidin]-2-one] | < 249
8 | CS(=O)(=O)c1ccc(OCCN2CCC3(CC2)C(=O)Nc2ccc(Cl)cc23)cc1 [Compound 69, 5-chloro-1′-[2-(4-methanesulfonylphenoxy)ethyl]-1,2-dihydrospiro[indole-3,4′-piperidin]-2-one] | 216
9 | Cn1ncc2cc(OCCN3CCC4(CC3)C(=O)Nc3ccccc34)ccc21 [Compound 70, 1′-{2-[(1-methyl-1H-indazol-5-yl)oxy]ethyl}-1,2-dihydrospiro[indole-3,4′-piperidin]-2-one] | 124
10 | CS(=O)(=O)c1ccc(OCCN2CCC3(CC2)C(=O)Nc2ccc(C#N)cc23)cc1 [Compound 71, 1′-[2-(4-methanesulfonylphenoxy)ethyl]-2-oxo-1,2-dihydrospiro[indole-3,4′-piperidine]-5-carbonitrile] | 626
11 | CS(=O)(=O)c1ccc(OCCN2CCC3(CC2)C(=O)Nc2ccc(Br)cc23)cc1 [Compound 72, 5-bromo-1′-[2-(4-methanesulfonylphenoxy)ethyl]-1,2-dihydrospiro[indole-3,4′-piperidin]-2-one] | 252
12 | CN(c1ccc(OCCN2CCC3(CC2)C(=O)Nc2ccc(C#N)cc23)cc1)S(C)(=O)=O [Compound 75, N-[4-(2-{5-cyano-2-oxo-1,2-dihydrospiro[indole-3,4′-piperidin]-1′-yl}ethoxy)phenyl]-N-methylmethanesulfonamide] | 689
13 | CN(c1ccc(OCCN2CCC3(CC2)C(=O)Nc2ccc(Cl)cc23)cc1)S(C)(=O)=O [Compound 76, N-[4-(2-{5-chloro-2-oxo-1,2-dihydrospiro[indole-3,4′-piperidin]-1′-yl}ethoxy)phenyl]-N-methylmethanesulfonamide] | 678
14 | CS(C)(=O)=Nc1ccc(OCCN2CCC3(CC2)C(=O)Nc2ccc(C#N)cc23)cc1 [Compound 77, 1′-[2-(4-{[dimethyl(oxo)-λ^6-sulfanylidene]amino}phenoxy)ethyl]-2-oxo-1,2-dihydrospiro[indole-3,4′-piperidine]-5-carbonitrile] | 1600
15 | CN1C(=O)CCc2cc(OCCN3CCC4(CC3)C(=O)Nc3ccc(Cl)cc34)cnc21 [Compound 78, 5-chloro-1′-{2-[(8-methyl-7-oxo-5,6,7,8-tetrahydro-1,8-naphthyridin-3-yl)oxy]ethyl}-1,2-dihydrospiro[indole-3,4′-piperidin]-2-one] | 522
16 | CN1C(=O)CCc2cc(OCCN3CCC4(CC3)C(=O)Nc3ccc(C#N)cc34)cnc21 [Compound 79, 1′-{2-[(8-methyl-7-oxo-5,6,7,8-tetrahydro-1,8-naphthyridin-3-yl)oxy]ethyl}-2-oxo-1,2-dihydrospiro[indole-3,4′-piperidine]-5-carbonitrile] | 687
17 | CC(C)[C@]1(O)C[C@@H](N2C(=O)CCc3cc(OCCN4CCC5(CC4)C(=O)Nc4ccc(Cl)cc45)cnc32)C1 [Compound 317, 5-chloro-1′-[2-({7-oxo-8-[(cis)-3-hydroxy-3-(propan-2-yl)cyclobutyl]-5,6,7,8-tetrahydro-1,8-naphthyridin-3-yl}oxy)ethyl]-1,2-dihydrospiro[indole-3,4′-piperidin]-2-one] | 792
18 | C[C@]1(O)C[C@@H](n2c(=O)ccc3cc(OCCN4CCC5(CC4)C(=O)Nc4ccc(Cl)cc45)cnc32)C1 [Compound 323, 5-chloro-1′-[2-({7-oxo-8-[(cis)-3-hydroxy-3-methylcyclobutyl]-7,8-dihydro-1,8-naphthyridin-3-yl}oxy)ethyl]-1,2-dihydrospiro[indole-3,4′-piperidin]-2-one] | 400
19 | C[C@]1(O)C[C@@H](n2c(=O)ccc3cc(OCCN4CCC5(CC4)C(=O)Nc4ccc(C(F)F)cc45)cnc32)C1 [Compound 324, 5-(difluoromethyl)-1′-[2-({7-oxo-8-[(cis)-3-hydroxy-3-methylcyclobutyl]-7,8-dihydro-1,8-naphthyridin-3-yl}oxy)ethyl]-1,2-dihydrospiro[indole-3,4′-piperidin]-2-one] | 942
20 | O=C1CCc2cc(OCCN3CCC4(CC3)C(=O)Nc3ccc(Cl)cc34)cnc2N1C1CC(CO)C1 (stereo not shown) [Compound 326, 5-chloro-1′-[2-({8-[3-(hydroxymethyl)cyclobutyl]-7-oxo-5,6,7,8-tetrahydro-1,8-naphthyridin-3-yl}oxy)ethyl]-1,2-dihydrospiro[indole-3,4′-piperidin]-2-one] | 680
21 | CC1(O)CC(CN2C(=O)CCc3cc(OCCN4CCC5(CC4)C(=O)Nc4ccc(Cl)cc45)cnc32)C1 (stereo not shown) [Compound 327, 5-chloro-1′-[2-({8-[(3-hydroxy-3-methylcyclobutyl)methyl]-7-oxo-5,6,7,8-tetrahydro-1,8-naphthyridin-3-yl}oxy)ethyl]-1,2-dihydrospiro[indole-3,4′-piperidin]-2-one] | 452
22 | C[C@]1(O)C[C@@H](n2c(=O)ccc3cc(OCCN4CCC5(CC4)C(=O)Nc4ccc(OC(F)F)cc45)cnc32)C1 [Compound 328, 5-(difluoromethoxy)-1′-[2-({7-oxo-8-[(cis)-3-hydroxy-3-methylcyclobutyl]-7,8-dihydro-1,8-naphthyridin-3-yl}oxy)ethyl]-1,2-dihydrospiro[indole-3,4′-piperidin]-2-one] | 748
23 | O=C1Nc2ccc(Cl)cc2C12CCN(CCOc1cnc(C3(CO)CC3)nc1)CC2 [Compound 333, 5-chloro-1′-[2-({2-[1-(hydroxymethyl)cyclopropyl]pyrimidin-5-yl}oxy)ethyl]-1,2-dihydrospiro[indole-3,4′-piperidin]-2-one] | 486
24 | CC(C)(CO)c1ncc(OCCN2CCC3(CC2)C(=O)Nc2ccc(Cl)cc23)cn1 [Compound 334, 5-chloro-1′-(2-{[2-(1-hydroxy-2-methylpropan-2-yl)pyrimidin-5-yl]oxy}ethyl)-1,2-dihydrospiro[indole-3,4′-piperidin]-2-one] | 2000
25 | CP(C)(=O)C1(c2ccc(OCCN3CCC4(CC3)C(=O)Nc3ccc(Cl)cc34)cc2)CC1 [Compound 343, 5-chloro-1′-(2-{4-[1-(dimethylphosphoryl)cyclopropyl]phenoxy}ethyl)-1,2-dihydrospiro[indole-3,4′-piperidin]-2-one] | 437
26 | C[C@]1(O)C[C@@H](N2C(=O)Cc3cc(OCCN4CCC5(CC4)C(=O)Nc4ccc(Cl)cc45)cnc32)C1 [Compound 345, 5-chloro-1′-[2-({2-oxo-1-[(cis)-3-hydroxy-3-methylcyclobutyl]-1H,2H,3H-pyrrolo[2,3-b]pyridin-5-yl}oxy)ethyl]-1,2-dihydrospiro[indole-3,4′-piperidin]-2-one] | 469
27 | C[C@]1(O)C[C@@H](N2C(=O)Cc3cc(OCCN4CCC5(CC4)C(=O)Nc4ccc(C(F)F)cc45)cnc32)C1 [Compound 346, 5-(difluoromethyl)-1′-[2-({2-oxo-1-[(cis)-3-hydroxy-3-methylcyclobutyl]-1H,2H,3H-pyrrolo[2,3-b]pyridin-5-yl]oxy)ethyl]-1,2-dihydrospiro[indole-3,4′-piperidin]-2-one] | 557
28 | C[C@]1(O)C[C@@H](n2ccc3cc(OCCN4CCC5(CC4)C(=O)Nc4ccc(Cl)cc45)cnc32)C1 [Compound 349, 5-chloro-1′-[2-({1-[(cis)-3-hydroxy-3-methylcyclobutyl]-1H-pyrrolo[2,3-b]pyridin-5-yl}oxy)ethyl]-1,2-dihydrospiro[indole-3,4′-piperidin]-2-one] | 199
